US11976092B2, “RNA nanostructures, methods of making, and uses thereof” (Ohio State Innovation Foundation, priority 2018, dated 2024)

Experiments:
FIG. 31B = assay: FIG. 31B
Text: Table printed on a drawing sheet, FIG. 31B
The patent's description of the figure: FIGS. 31A and 31B show enzymatic stability of branched 3WJs modular RNA motifs. FIG. 31A. Serum degradation curve. FIG. 31B. Half life of 3WJs in 50% serum.
FIGS. 29A to 31B show design (FIGS. 29A and 29B), thermal stability (qPCR & TGGE, FIGS. 30A to 30C), and enzymatic stability (serum stability assay, FIGS. 31A and 31B) of branched 3WJs with different core and helix.

KB cells = assay: FITC Annexin V / PI apoptosis assay (FACS); assay type: cell-based, Human; conditions: 1 μM, 48 hr treatment
Experimental: FITC Annexin V Apoptosis Detection Kit (BD Pharmingen) and Caspase-3 Assay Kit (BD Pharmingen) were used as previously reported to study cell apoptosis induced by pRNA-3WJ-PTX micelle treatment. For FITC Annexin V staining assay, KB cells were seeded in 12-well plates overnight. […] The controls include Paclitaxel, pRNA-3WJ micelles, and pRNA-3WJ. According to manufacturer instructions, 48 hr after incubation with the RNA micelles, KB cells were trypsinized to single cell suspension. After two PBS washes, the cells were resuspended in 100 μL 1× Annexin V-FITC binding buffer. Then 5 μL AnnexinV-FITC and 5 μL propidium iodide (PI) were added into each sample and incubated at room temperature for 25 min. The samples were finally added to a flow tube which contained 200 μL 1× binding buffer for FACS analysis within 1 hr.

[1] = Apparent hydrodynamic diameter by DLS (Zetasizer nano-ZS); assay type: physicochemical; conditions: 25° C.
Text: The data was obtained from three independent measurements.

Substance | t1/2 (FIG. 31B) [h] | cells undergoing apoptosis (KB cells) [%] | average hydrodynamic diameter [1] [nm]
Phi29-Mod: 3WJ modular RNA motif, SEQ ID NOs:19-21 (chain 1 AUUCGCUGUGUGGUAGUG; chain 2 CACUACCACUUUGUCCUACG; chain 3 CGUAGGACCAGCGAAU; further chemistry not given here) | 24 |  | 
pRNA-3WJ: phi29 pRNA three-way junction scaffold of a3WJ, b3WJ, c3WJ (SEQ ID NO:16-18), without lipophilic and therapeutic modules (chain 1 UUGCCAUGUGUAUGUGGG; chain 2 CCCACAUACUUUGUUGAUCC; chain 3 GGAUCAAUCAUGGCAA; 2'-fluoro at CU, RNA at AG, backbone not given here) |  | 3.7 | 7.466±1.215
